# Experimental data reported in PubChem BioAssay AID504438 (Sanford-Burnham Center for Chemical Genomics, 2011).
# Active and inactive are the calls of the source.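 Rule for the calls: active = IC50 below 20 µM in the dose response test; inactive = the rest.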
# Biological target: Type-1 angiotensin II receptor (Homo sapiens) (UniProt P30556)
# Assay: AT1 receptor antagonist selectivity testing, SAR follow-up, selectivity assay for APJ receptor antagonist project, cell-based, CHO-K1 AGTR1, beta-arrestin, luminescence, set 4 (AID 504438)
# Details: CHO-K1 AGTR1 beta-arrestin complementation
# Sequence of Type-1 angiotensin II receptor (Homo sapiens) (P30556 whole entry, looked up): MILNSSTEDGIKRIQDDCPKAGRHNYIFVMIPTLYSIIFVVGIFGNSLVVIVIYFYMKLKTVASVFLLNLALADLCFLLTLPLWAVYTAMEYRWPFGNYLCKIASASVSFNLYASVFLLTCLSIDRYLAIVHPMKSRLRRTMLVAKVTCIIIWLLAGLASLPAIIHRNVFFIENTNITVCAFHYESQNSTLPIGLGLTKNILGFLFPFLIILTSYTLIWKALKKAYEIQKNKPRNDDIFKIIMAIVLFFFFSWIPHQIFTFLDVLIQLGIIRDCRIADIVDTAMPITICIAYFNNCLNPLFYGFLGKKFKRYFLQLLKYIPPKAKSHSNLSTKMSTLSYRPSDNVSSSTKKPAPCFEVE
row,SMILES,IC50
1,O=C(Oc1coc(CSc2ccc(Cl)cc2)cc1=O)c1ccc(Cl)c([N+](=O)[O-])c1,> 79 µM (inactive)
2,Cc1ccc(SCc2cc(=O)c(OC(=O)c3ccc(Cl)c([N+](=O)[O-])c3)co2)cc1,> 79 µM (inactive)
3,O=C(Oc1coc(CSc2ccc(OC(F)(F)F)cc2)cc1=O)c1ccc(Cl)c([N+](=O)[O-])c1,> 79 µM (inactive)
4,O=C(Oc1coc(CN2CCOCC2)cc1=O)c1ccccc1,> 79 µM (inactive)
5,Cc1cc(C)nc(SCc2cc(=O)c(OC(=O)c3ccc(-c4nccs4)cc3)co2)n1,> 79 µM (inactive)
6,O=C(Oc1coc(CN2CCOCC2)cc1=O)c1ccc([N+](=O)[O-])cc1,> 79 µM (inactive)
7,COc1ccc(SCc2cc(=O)c(OC(=O)c3ccc(Cl)c([N+](=O)[O-])c3)co2)cc1,> 79 µM (inactive)
8,Cc1ccnc(SCc2cc(=O)c(NC(=O)c3ccc([N+](=O)[O-])cc3)co2)n1,> 79 µM (inactive)
